Experimental data taken from US11253589B2, “Modulation of the immune response” (priority 2007, dated 2022).

How the values were obtained:
C57BL/6 mice = experiment: EAE induced by immunization with MOG35-55 in CFA; format: in vivo, mouse
AHR = biological target: T1, AHR (Homo sapiens, UniProt P35869); details: cited from earlier work
T1 sequence (P35869 11-848): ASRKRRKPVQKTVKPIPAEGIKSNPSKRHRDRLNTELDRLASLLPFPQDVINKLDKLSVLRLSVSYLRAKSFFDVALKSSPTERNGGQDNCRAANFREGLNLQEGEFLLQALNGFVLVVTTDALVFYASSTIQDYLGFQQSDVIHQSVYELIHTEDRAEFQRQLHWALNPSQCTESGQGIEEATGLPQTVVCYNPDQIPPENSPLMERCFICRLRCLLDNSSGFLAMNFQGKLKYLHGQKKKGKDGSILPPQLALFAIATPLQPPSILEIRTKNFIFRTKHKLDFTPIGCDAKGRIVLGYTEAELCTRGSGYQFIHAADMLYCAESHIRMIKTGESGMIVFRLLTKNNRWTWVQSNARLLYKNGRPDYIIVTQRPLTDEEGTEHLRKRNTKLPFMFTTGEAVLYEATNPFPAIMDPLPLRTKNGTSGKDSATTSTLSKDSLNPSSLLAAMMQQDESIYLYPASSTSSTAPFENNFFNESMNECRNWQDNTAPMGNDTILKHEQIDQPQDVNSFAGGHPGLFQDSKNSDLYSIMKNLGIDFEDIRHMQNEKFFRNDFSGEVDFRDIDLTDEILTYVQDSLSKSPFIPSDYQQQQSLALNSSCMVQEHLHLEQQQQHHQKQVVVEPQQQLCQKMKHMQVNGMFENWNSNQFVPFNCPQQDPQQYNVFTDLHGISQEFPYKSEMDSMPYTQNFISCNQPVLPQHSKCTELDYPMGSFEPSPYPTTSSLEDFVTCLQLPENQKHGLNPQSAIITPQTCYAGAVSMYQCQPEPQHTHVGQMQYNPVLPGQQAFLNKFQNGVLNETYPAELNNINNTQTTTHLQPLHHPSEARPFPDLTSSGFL

[1] = compared with toxic effects reported for TCDD; cited from earlier work
[2] = system: CD4+ CD62L+CD45RO- T cells; experiment: In vitro differentiation of human naive CD4+ T cells, suppression and real time PCR; format: cell-based; details: 5 days activation with antibodies to CD3 and CD28; TGFb1 2.5 ng/ml or TCDD alone
Description: To investigate the potential of AHR targeting for the induction of human Treg we activated purified naïve CD4^+ CD62L^+CD45RO^− T cells for healthy donors for 5 days with antibodies to CD3 and CD28 in the presence of TCDD 100 nM or TGFb1 2.5 ng/ml or both.
To study the functionality of the putative human Treg induced in the presence of TCDD we studied their suppressive activity of CD4^+ CD25^High and CD4^+CD25^Low T cells following 5 days of activation in the of TCDD or TGFb1 2.5 ng/ml or both.
To investigate the mechanism mediating the suppressive activity of the TCDD-induced Treg, we analyzed them by real time PCR for the expression of several genes that have been previously linked to the suppressive function of Treg. […] Accordingly, IL-10-specific blocking antibodies could interfere with the suppressive activity of Treg induced with TCDD, but not the of those induced with TGFb1 and TCDD (FIG. 42). Thus, TCDD-induced CD4^+CD25^High T cells are FoxP3^− regulatory cells whose suppressive activity is mediated, at least partially, via IL-10, resembling the phenotype of type 1 Treg (Roncarolo et al., Immunol Rev. 212, 28 (2006); Roncarolo and Gregori, Eur J Immunol. 38, 925 (2008)).

CD4+Foxp3:GFP- T cells = experiment: In vitro conversion of CD4+Foxp3:GFP- T cells into Treg; format: cell-based, mouse; details: resveratrol 50 μM
Description: CD4+ T cells were purified from Foxp3gfp knock in mice using anti-CD4 beads (Miltenyi, Auburn, Calif., USA) and sorted (FACSAria™ cell sorter, BD Biosciences) into naive CD4^+ Foxp3:GFP^− or CD4^+ Foxp3:GFP T cells. CD4^+ Foxp3:GFP^− T cells were stimulated with plate bound 1 μg/ml of anti-CD3 (145-2C11, eBioscience) and 2 μg/ml of anti-CD28 (37.51, eBioscience) for 5 days, supplemented with recombinant IL-2 (50 U/ml) at day 2 and 4, and analyzed by FACS at day 5 for their differentiation into […]. TGFβ1 (2.5 ng/ml) was used as a positive control.
To establish if TCDD triggered the conversion of CD4^+Foxp3^− T cells into new Foxp3^+ Treg cells, FACS sorted CD4^+Foxp3:GFP− T cells were activated in vitro with antibodies to CD3 and CD28 in the presence of TCDD, and the generation of CD4^+Foxp3:GFP^+ Treg was followed by FACS. TGFb1 was used as a positive control.

CD4+Foxp3:GFP+ Treg = experiment: Treg suppressive activity assay; format: cell-based, mouse; details: resveratrol treated cells
Description: Cells were cultured in serum-free X-VIVO 20™ media (BioWhittaker, Walkersville, Md., USA) for 72 hours. During the last 16 hours, cells were pulsed with 1 μCi of [^3H]thymidine (PerkinElmer, Waltham, Mass., USA) followed by harvesting on glass fiber filters and analysis of incorporated [^3H]thymidine in a beta-counter (1450 Microbeta, Trilux, PerkinElmer). Alternatively, culture supernatants were collected […] activation and the cytokine concentration was determined by ELISA using antibodies for IFN-γ, IL-17, IL-4, IL-10 from BD Biosciences and antibodies to TGF-β from R&D Systems. For suppression assays, MACS purified CD4^+CD25^− T cells from naïve C57BL/6 mice (1-5×10^4 cells/well) were stimulated with antibodies to CD3 and C57BL/6 irradiated spleen cells (0.3-1.5×10^4 cells/well) for 3 days in the presence of different ratios of CD4^+ GFP^+ retrovirus-transduced T cells.
To investigate the active suppression of MOG35-55-specific Teff by Treg, Foxp3^gpf knock in mice were immunized with MOG35-55/CFA, treated daily with intreaperitoneal ITE ([…]) and the recall response to MOG35-55 and a mitogenic antibody to CD3 antibody was studied on FACS-sorted CD4^+ T cells and CD4^+ FoxP3:GFP− Teff. […] This suppressed response to MOG35-55 was lost upon removal of the CD4^+FoxP3:GFP^+ Treg (FIG. 26). To further analyze the MOG35-55-specific suppressive activity of the CD4^+FoxP3:GFP^+ Treg, they were cocultured at different ratios and assayed for the suppression of MOG35-55 or anti-CD3-triggered proliferation of CD4^+FoxP3:GFP− Teff form 2D2 mice, which harbor a TCR specific for MOG35-55.

**Q.** Which EAE suppression (C57BL/6 mice; TA combined with the monoamine oxidase inhibitor Tranylcypromine) does the source give for NCCc1c[nH]c2ccccc12 [TA, tryptamine] here?
**A.** effectively suppresses EAE

**Q.** What about the AHR affinity (AHR) of the same molecule?
**A.** high affinity AHR ligands

**Q.** What about the toxic effects [1] of the same molecule?
**A.** do not display the toxic effects

**Q.** With “TGFb1: TGFβ1, positive control for Treg induction” as the molecule, how does the “induction of suppressive (regulatory) T cells” value [2] read?
**A.** did not result in the induction of suppressive T cells

**Q.** What does the source list for Oc1ccc(C=Cc2cc(O)cc(O)c2)cc1 [resveratrol]?
**A.** induction of Treg by TGFβ1 and TCDD (CD4+Foxp3:GFP- T cells): interfered with the induction of Treg; suppressive activity of Treg (CD4+Foxp3:GFP+ Treg): Decreases in the suppressive activity

**Q.** For O=Cc1c2c(cc3c1=Nc1ccccc1-3)=Nc1ccccc1-2 [FICZ, 6-formylindolo[3,2-b]carbazole], which EAE development (C57BL/6 mice; AHR-ligand loaded nanoparticles, 45 femtomoles weekly starting at day 0) is on record?
**A.** worsened the disease
